According to article PMC7673538 (PLoS Biology, 2020):
Values joined by “and” are separate entries in the source; they are usually repeats but may differ in a detail not shown here. Identical values can stand only once. Like-named read-outs stand apart in the source and are kept apart here.

Columns and labels:
PV-1 = test: microbe, parasite or virus in culture; assay type: cell-based, poliovirus 1; details: Enterovirus C, HeLa R19, read-out: EC50 PV-1
EV-D68 = test: microbe, parasite or virus in culture; assay type: cell-based, enterovirus D68; details: for EC50: Enterovirus D
CV-B3 [1] = test: microbe, parasite or virus in culture; assay type: cell-based, coxsackievirus B3
CV-B3 [2] = test: microbe, parasite or virus in culture; assay type: cell-based, coxsackievirus B3; details: Enterovirus B, CVB3, BGM
CV-A24 (strain Joseph) = assay type: cell-based, coxsackievirus A24
CV-B3 [3] = test: microbe, parasite or virus in culture; assay type: cell-based, coxsackievirus B3; details: Enterovirus B
human DAT = target: T1, human DAT (Homo sapiens, UniProt Q01959); assay type: cell-based; details: for DAT, Mean (Figure 8B): Control = 100; for DAT, Mean as % (Figure 8B): Control = 100%
T1 construct: expressed in transfected cells; host or cells: HEK293 (gift of Dr. Hoener, F. Hoffmann-La Roche)
T1 sequence (Q01959 whole entry): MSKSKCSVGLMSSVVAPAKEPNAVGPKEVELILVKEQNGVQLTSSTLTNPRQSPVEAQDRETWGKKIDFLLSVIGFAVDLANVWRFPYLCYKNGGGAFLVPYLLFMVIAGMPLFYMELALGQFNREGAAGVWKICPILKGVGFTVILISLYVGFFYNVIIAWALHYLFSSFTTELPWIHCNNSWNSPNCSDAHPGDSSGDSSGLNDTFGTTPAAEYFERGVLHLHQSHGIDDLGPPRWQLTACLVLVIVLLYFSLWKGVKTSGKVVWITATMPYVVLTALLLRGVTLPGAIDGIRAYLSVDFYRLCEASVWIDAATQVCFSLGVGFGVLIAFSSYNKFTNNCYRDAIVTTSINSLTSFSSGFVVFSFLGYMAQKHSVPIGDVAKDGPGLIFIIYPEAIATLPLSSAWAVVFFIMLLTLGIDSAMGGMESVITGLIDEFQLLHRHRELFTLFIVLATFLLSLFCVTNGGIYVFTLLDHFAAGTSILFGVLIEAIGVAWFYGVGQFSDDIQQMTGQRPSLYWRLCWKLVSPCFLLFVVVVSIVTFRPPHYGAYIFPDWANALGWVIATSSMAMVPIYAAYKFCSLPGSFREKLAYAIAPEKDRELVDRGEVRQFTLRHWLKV

HRV-A2 = assay type: cell-based, human rhinovirus
in vitro = details: monkey
[4] = system: representative EVs and RVs; assay type: cell-based
HRV-B14 = assay type: cell-based, human rhinovirus

## COc1ccc(N(Cc2ccc(F)cc2)C(=O)c2cc[nH]c2)cc1 [Compound 12a, N-(4-Fluorobenzyl)-N-(4-methoxyphenyl)-1H-pyrrole-3-carboxamide]
PV-1
  EC50: 3.71 ± 0.18 µM
EV-D68
  cross-resistance of 19d-resistant EV-D68 virus pools (in words): cross-resistance
EV-D68; Concentration 0.001 µM
  Figure 7 dose-response raw data, EV-D68 (triplicate values): 11.1333 and 12.4782 and 12.9265
EV-D68; Concentration 0.0137 µM
  Figure 7 dose-response raw data, EV-D68 (triplicate values): 9.388 and 8.898 and 11.4747
EV-D68; Concentration 0.0412 µM
  Figure 7 dose-response raw data, EV-D68 (triplicate values): 11.1333 and 12.4782 and 12.9265
EV-D68; Concentration 0.1235 µM
  Figure 7 dose-response raw data, EV-D68 (triplicate values): 10.386 and 11.4321 and 12.9265
EV-D68; Concentration 0.3704 µM
  Figure 7 dose-response raw data, EV-D68 (triplicate values): 8.529 and 8.161 and 15.8928
EV-D68; Concentration 1.1111 µM
  Figure 7 dose-response raw data, EV-D68 (triplicate values): 91.9917 and 94.6194 and 110.886
EV-D68; Concentration 3.3333 µM
  Figure 7 dose-response raw data, EV-D68 (triplicate values): 101.502 and 102.252 and 110.761
EV-D68; Concentration 10 µM
  Figure 7 dose-response raw data, EV-D68 (triplicate values): 100.876 and 104.38 and 113.014
EV-D68; EVD68, HeLa R19, […], read-out: EC50 Exp1
  EC50: 3.04 µM
EV-D68; EVD68, HeLa R19, read-out: EC50 Average
  EC50: 1.25 µM
EV-D68; EVD68, HeLa R19, read-out: EC50 EV-D68
  EC50: 1.08 ± 0.2 µM
EV-D68; EVD68, HeLa R19, read-out: EC50 EV-D68 strain 4310900947
  EC50: 1.84 ± 0.4 µM
EV-D68; EVD68, HeLa R19, read-out: EC50 EV-D68 strain 4310901348
  EC50: 2.72 ± 0.96 µM
EV-D68; EVD68, HeLa R19, read-out: EC50 EV-D68 strain 4310902042
  EC50: 1.44 ± 0.23 µM
EV-D68; EVD68, HeLa R19, read-out: EC50 EV-D68 strain 4310902284
  EC50: 2.31 ± 0.82 µM
EV-D68; EVD68, HeLa R19, read-out: EC50 EV-D68 strain 4311000742
  EC50: 1.86 ± 0.16 µM
EV-D68; EVD68, HeLa R19, read-out: EC50 EV-D68 strain Fermon
  EC50: 1.23 ± 0.16 µM
EV-D68; EVD68 / genotype 2c, HeLa R19, read-out: EC50 EV-D68 WT
  EC50: 1.25 ± 0.09 µM
HeLa R19 cells
  cytotoxicity (in words): no cytotoxicity
CV-B3 [1]
  cross-resistance of 19d-resistant CV-B3 virus pools (in words): cross-resistant
  increase of antiviral activity against CV-B3: ~25 fold
CV-B3 [1]; Concentration 0.001 µM
  Figure 7 dose-response raw data, CV-B3 (triplicate values): 10.6023 and 13.4886 and 15.1049
CV-B3 [1]; Concentration 0.0137 µM
  Figure 7 dose-response raw data, CV-B3 (triplicate values): 31.7298 and 16.0285 and 26.5345
CV-B3 [1]; Concentration 0.3704 µM
  Figure 7 dose-response raw data, CV-B3 (triplicate values): 108.081 and 95.0938 and 115.255
CV-B3 [1]; Concentration 1.1111 µM
  Figure 7 dose-response raw data, CV-B3 (triplicate values): 110.307 and 87.92 and 98.0623
CV-B3 [1]; Concentration 3.3333 µM
  Figure 7 dose-response raw data, CV-B3 (triplicate values): 103.381 and 89.7753 and 100.165
CV-B3 [1]; Concentration 10 µM
  Figure 7 dose-response raw data, CV-B3 (triplicate values): 102.144 and 95.7122 and 98.0623
CV-B3 [1]; Enterovirus B, CVB3, HeLa
  EC50: 0.01 ± 0.01 µM
CV-B3 [1]; Enterovirus B, CVB3, HeLa R19, […], read-out: EC50 Exp1
  EC50: 0.18 µM
CV-B3 [1]; Enterovirus B, CVB3, HeLa R19, read-out: 50% effective concentration [EC50]
  EC50: 0.08 ± 0.08 µM
CV-B3 [1]; Enterovirus B, CVB3, HeLa R19, read-out: CV-B3 Exp 1 EC50
  EC50: 0.059 µM
CV-B3 [1]; Enterovirus B, CVB3, HeLa R19, read-out: CV-B3 Exp2 EC50
  EC50: 0.095 µM
CV-B3 [1]; Enterovirus B, CVB3, HeLa R19, read-out: EC50 Average
  EC50: 0.0187 µM
CV-B3 [1]; Enterovirus B, CVB3, HeLa R19, read-out: EC50 Exp1
  EC50: 0.017 µM
CV-B3 [1]; Enterovirus B, CVB3, HeLa R19, read-out: EC50 Exp2
  EC50: 0.37 µM
CV-B3 [1]; Enterovirus B, CVB3, HeLa R19, read-out: EC50 HelaR19 Average
  EC50: 0.0112 µM
CV-B3 [1]; Enterovirus B, CVB3, HeLa R19, read-out: Exp 1 EC50 HelaR19
  EC50: 0.004 µM
CV-B3 [1]; Enterovirus B, CVB3, HeLa R19, read-out: Exp 2 EC50 HelaR19
  EC50: 0.0183 µM
CV-B3 [1]; Enterovirus B, CVB3 / genotype 2c, HeLa R19, read-out: EC50 CV-B3 WT
  EC50: 0.02 ± 0.01 µM
CV-B3 [1]; read-out: EC50 Exp2
  EC50: 0.21 µM
CV-B3 [2]
  EC50: 0.04 ± 0.02 µM
CV-B3 [2]; read-out: EC50 BGM Average
  EC50: 0.035 µM
CV-B3 [2]; read-out: Exp 1 EC50 BGM
  EC50: 0.02 µM
CV-B3 [2]; read-out: Exp 2 EC50 BGM
  EC50: 0.05 µM
CV-A24 (strain Joseph); compound concentration 0.1 µM
  virus titer, TCID50/ml (Figure 2A): 469824 TCID50/ml and 562341 TCID50/ml and 300000 TCID50/ml
CV-A24 (strain Joseph); compound concentration 1 µM
  virus titer, TCID50/ml (Figure 2A): 169824 TCID50/ml and 316228 TCID50/ml
CV-A24 (strain Joseph); compound concentration 100 µM
  virus titer, TCID50/ml (Figure 2A): 316.228 TCID50/ml
CV-B3 [3]; CVB3, HAP1
  EC50: 0.02 ± 0.02 µM
CV-B3 [3]; CVB3, HAP1, read-out: EC50 Hap1 Average
  EC50: 0.023 µM
CV-B3 [3]; CVB3, HAP1, read-out: Exp 1 EC50 Hap1
  EC50: 0.04 µM
CV-B3 [3]; CVB3, HAP1, read-out: Exp 2 EC50 Hap1
  EC50: 0.006 µM
Human DAT; 1µM
  DAT, Mean (Figure 8B): 80.4016
  DAT, Mean as % (Figure 8B): 80%
Human DAT; 100µM
  DAT, Mean (Figure 8B): 86.9569
  DAT, Mean as % (Figure 8B): 87%
Human DAT; HEK293 cells expressing human DAT, 1 μM or 100 μM
  inhibition of DAT function (in words): neither 12a, 19b, 19d, nor the combined compound 12b inhibited
HRV-A2; compound concentration 3 µM
  virus titer, TCID50/ml (Figure 2A): 354813 TCID50/ml
HRV-A2; compound concentration 100 µM
  virus titer, TCID50/ml (Figure 2A): 737.962 TCID50/ml and 467.735 TCID50/ml and 500 TCID50/ml
In vitro; CC50
  CC50: > 100 µM
In vitro; CC50 BGM Average
  CC50: > 100 µM
In vitro; Exp 1 CC50 BGM
  CC50: > 100 µM
In vitro; Exp 2 CC50 BGM
  CC50: > 100 µM
[4]
  inhibition of contemporary/clinical isolates of EV-A71, CV-A24v and EV-D68 (in words): inhibited all clinical isolates of EV-A71, CV-A24v, and EV-D68 tested
  spectrum of antiviral activity (in words): inhibited all representative EVs and RVs
HRV-B14; compound concentration 0.3 µM
  virus titer, TCID50/ml (Figure 2A): 10000000 TCID50/ml and 16982440 TCID50/ml
HRV-B14; compound concentration 3 µM
  virus titer, TCID50/ml (Figure 2A): 10000000 TCID50/ml and 16982440 TCID50/ml
